Where a name gives a salt, the structure may show the parent alone. Read-outs that look alike come from different tables or passages of the source.
What was measured:
Assay type in all cases: cell-based, murine
P388S cells = assay: 72-hour growth inhibition of drug-sensitive P388S cells by anticancer drug alone or with modifier (Table I); conditions: for IC50: Mus musculus, P388/S, 72 h, mean of two experiments in triplicate; for effect on adriamycin activity in drug-sensitive parent P388S cells: modifier with adriamycin
Method: (§1) In performing the studies P388 that were sensitive to adriamycin (P388S) and P388 cells that were resistant to adriamycin (P388/ADR) were exposed to various concentrations of anticancer drug either alone or together with 5 μg/mL of modifier or sensitizer for 72 hours.
(§2) The P388 murine leukemia cells used in obtaining the data set forth in Table I and Table II were obtained from Southern Research Institute (Birmingham, Ala.) and were cultured from ascites fluids of tumor-bearing DMA/2 mice and maintained in Fischer's medium supplemented with 10% horse serum, 10 μM 2-mercaptoethanol, and gentamycin (50 μg/mL). Cells were counted with a Model ZF Coulter Counter (Coulter Electronics, Inc., Hialeah, Fla.). Viability was determined by trypan blue exclusion. The general methodology is described by W. D. Klohs, et al, Cancer Research 46, 4352-4356 (September 1986) and W. D. Klohs, et al, J. Nat'l. Cancer Inst. 75, 353-359 (1985).

P388/ADR cells = assay: 72-hour growth inhibition of adriamycin-resistant P388/ADR cells by anticancer drug alone or with modifier (Table I); conditions: Mus musculus
Method: as §1, §2

P388R cells [1] = assay: Potentiation of adriamycin activity and cell growth in P388 resistant cells (Table II); conditions: for Degree of ADR Potentiation in P388R: footnote a (drawing 3)
Method: as §2, with “The general methodology is described by W. D. Klohs, et al, Cancer Research 46, 4352-4356 (September 1986) and W. D. Klohs, et al, J. Nat'l.” left out, “Inst.” for “Inst. 75, 353-359 (1985).”

P388R cells [2] = assay: Comparative chemosensitization studies in resistant P388R cells; conditions: for effect of serum proteins on chemosensitizing activity: MDR cells
Method: as §1, §2

MDR P388 cells = assay: Intracellular drug levels in MDR P388 cells; conditions: mechanism of chemosensitization
[3] = P388S, anticancer drug alone, modifier none, read-out: ID50 (concentration that inhibits 72-hour cell growth by 50%)
[4] = P388S, anticancer drug with modifier CsA (cyclosporin A) 5 μg/mL, read-out: ID50 (concentration that inhibits 72-hour cell growth by 50%)
[5] = P388S, anticancer drug with modifier TIOP (tioperidone) 5 μg/mL, read-out: ID50 (concentration that inhibits 72-hour cell growth by 50%)
[6] = P388S, anticancer drug with modifier VER (verapamil) 5 μg/mL, read-out: ID50 (concentration that inhibits 72-hour cell growth by 50%)
[7] = anticancer drug alone, modifier none, mean of two experiments in triplicate, read-out: ID50 (concentration that inhibits 72-hour cell growth by 50%)
[8] = anticancer drug with modifier CsA (cyclosporin A) 5 μg/mL, mean of two experiments in triplicate, read-out: ID50 (concentration that inhibits 72-hour cell growth by 50%)
[9] = anticancer drug with modifier TIOP (tioperidone) 5 μg/mL, mean of two experiments in triplicate, read-out: ID50 (concentration that inhibits 72-hour cell growth by 50%)
[10] = anticancer drug with modifier VER (verapamil) 5 μg/mL, mean of two experiments in triplicate, read-out: ID50 (concentration that inhibits 72-hour cell growth by 50%)

Molecule | IC50 (P388S cells; [3]) [nM] | IC50 (P388S cells; [4]) [nM] | IC50 (P388S cells; [5]) [nM] | IC50 (P388S cells; [6]) [nM] | IC50 (P388/ADR cells; [7]) [nM] | IC50 (P388/ADR cells; [8]) [nM] | IC50 (P388/ADR cells; [9]) [nM] | IC50 (P388/ADR cells; [10]) [nM] | further results
COc1cccc2c1C(=O)c1c(O)c3c(c(O)c1C2=O)C[C@@](O)(C(=O)CO)C[C@@H]3O[C@H]1C[C@H](N)[C@H](O)[C@H](C)O1 [Adriamycin] | 156 | 147 | 152 | 152 | 7820 | 195 | 174 | 710 | 
CNCCNc1ccc2c3c(nn2CCNCCO)-c2c(O)ccc(O)c2C(=O)c13 [CI-937, 7,10-dihydroxy-2-[2-[(2-hydroxyethyl)amino]ethyl]-5-[[2-(methylamino)ethyl]amino]anthra[1,9-cd]pyrazol-6(2H)-one dihydrochloride] | 145 | 135 | 145 | 147 | 5730 | 151 | 132 | 524 | 
COc1cccc2c1C(=O)c1c(O)c3c(c(O)c1C2=O)C[C@@](O)(C(C)=O)C[C@@H]3O[C@H]1C[C@H](N)[C@H](O)[C@H](C)O1 [Daunomycin] | 98 | 95 | 96 | 93 | 2770 | 108 | 103 | 329 | 
COc1cc([C@@H]2c3cc4c(cc3[C@@H](O[C@@H]3O[C@@H]5CO[C@@H](C)O[C@H]5[C@H](O)[C@H]3O)[C@H]3COC(=O)[C@H]23)OCO4)cc(OC)c1O [Etoposide] |  |  |  |  |  |  |  |  | IC50 (P388S cells; read-out: ID50 (concentration that inhibits 72-hour cell growth by 50%), P388S, anticancer drug alone, modifier none): 24.1 nM; IC50 (P388S cells; read-out: ID50 (concentration that inhibits 72-hour cell growth by 50%), P388S, anticancer drug with modifier CsA (cyclosporin A) 5 μg/mL): 19.8 nM; IC50 (P388S cells; read-out: ID50 (concentration that inhibits 72-hour cell growth by 50%), P388S, anticancer drug with modifier TIOP (tioperidone) 5 μg/mL): 21.2 nM; IC50 (P388S cells; read-out: ID50 (concentration that inhibits 72-hour cell growth by 50%), P388S, anticancer drug with modifier VER (verapamil) 5 μg/mL): 20.1 nM; IC50 (P388/ADR cells; read-out: ID50 (concentration that inhibits 72-hour cell growth by 50%), P388/ADR, anticancer drug alone, modifier none, mean of two experiments in triplicate): 5100 nM; IC50 (P388/ADR cells; read-out: ID50 (concentration that inhibits 72-hour cell growth by 50%), P388/ADR, anticancer drug with modifier CsA (cyclosporin A) 5 μg/mL, mean of two experiments in triplicate): 252 nM; IC50 (P388/ADR cells; read-out: ID50 (concentration that inhibits 72-hour cell growth by 50%), P388/ADR, anticancer drug with modifier TIOP (tioperidone) 5 μg/mL, mean of two experiments in triplicate): 433 nM; IC50 (P388/ADR cells; read-out: ID50 (concentration that inhibits 72-hour cell growth by 50%), P388/ADR, anticancer drug with modifier VER (verapamil) 5 μg/mL, mean of two experiments in triplicate): 872 nM
CCCSc1ccccc1N1CCN(CCCCn2c(=O)[nH]c3ccccc3c2=O)CC1 [Example 1, 3-[4-[4-[2-(propylthio)phenyl]-1-piperazinyl]butyl-2,4-(1H,3H)-quinazolinedione (tioperidone)monohydrochloride] |  |  |  |  |  |  |  |  | effect on adriamycin activity in drug-sensitive parent P388S cells (P388S cells): little effect; activity at 5 µM (P388R cells [1]; Mus musculus, P388, test compound at 5 μM, read-out: % of Control Cell Growth): 100%; activity at 10 µM (P388R cells [1]; Mus musculus, P388, test compound at 10 μM, read-out: % of Control Cell Growth): 98%; Degree of ADR Potentiation in P388R (P388R cells [1]; test compound at 5 μM with adriamycin): 20.8; Degree of ADR Potentiation in P388R (P388R cells [1]; test compound at 10 μM with adriamycin): 44.7; effect of serum proteins on chemosensitizing activity (P388R cells [2]): does not appear to be altered by serum proteins; potentiating the activity of adriamycin in P388R cells (P388R cells [2]; compared with verapamil, amiodarone and cyclosporin A): superior to all of the other agents; sensitization of P388R cells to vincristine, trimetrexate, and CI-937 (P388R cells [2]; modifier with vincristine, trimetrexate or CI-937): fully sensitized; effect on intracellular drug levels in MDR P388 cells (MDR P388 cells): increasing the intracellular drug levels
COc1cc(NCc2ccc3nc(N)nc(N)c3c2C)cc(OC)c1OC [Trimetrexate] | 12 | 11 | 12 | 12 | 270 | 12 | 14 | 29 | 
CC[C@]1(O)C[C@H]2CN(CCc3c([nH]c4ccccc34)[C@@](C(=O)OC)(c3cc4c(cc3OC)N(C=O)[C@H]3[C@@](O)(C(=O)OC)[C@H](OC(C)=O)[C@]5(CC)C=CCN6CC[C@]43[C@@H]65)C2)C1 [Vincristine] | 21 | 21 | 20 | 21 | 554 | 27 | 22 | 30 | 
CCCCc1oc2ccccc2c1C(=O)c1cc(I)c(OCCN(CC)CC)c(I)c1 [amiodarone, reference compound] |  |  |  |  |  |  |  |  | effect of serum proteins on chemosensitizing activity (P388R cells [2]): diminished by binding to serum proteins
cyclosporin A |  |  |  |  |  |  |  |  | effect on adriamycin activity in drug-sensitive parent P388S cells (P388S cells): little effect

Source: patent publication US5160727A, “Tumor cell sensitization method using quinazolinedione derivatives” (priority 1990, dated 1992)
